Laboratory results taken from US11576914B2, “Drug for treating or preventing disorder caused by TGF-β signaling, and application thereof” (THE DOSHISHA, priority 2017, dated 2023).
Entries after “also recorded” stand apart in the source; their conditions may differ.

Key:
[1] = system: Fuchs' endothelial corneal dystrophy patient-derived immortalized corneal endothelial cells; assay: Cell damage inhibitory effect on iFECD stimulated with TGF-β2 (phase contrast microscope); type: cell-based, human; conditions: for disorder in the corneal endothelial cells: 1 μM and 3 μM, iFECD, pretreatment, TGF-β2 stimulation; for cell damage inhibitory effect for the corneal endothelial cells: at sub-μM
Method: The medium was removed from the culture dish in which Fuchs' endothelial corneal dystrophy patient-derived immortalized corneal endothelial cells (hereinafter, referred to as disease model cells) were being cultured, and the cells were supplemented with 1×PBS (−) that was preheated to 37° C., and were washed. This operation was repeated twice. The cells were supplemented with 1×PBS (−) again and incubated for 5 minutes at 37° C. (5% CO2). After the PBS (−) was removed, the cells were supplemented with 0.05% Trypsin-EDTA (nacalai tesque, 32778-34) and incubated for 5 minutes at 37° C. (5% CO2). The cells were then suspended in a medium, and collected by centrifugation at 1500 rpm for 3 minutes. DMEM (nacalai tesque, 08456-36)+10% FBS (Biowest, S1820-500)+1% P/S (nacalai tesque, 26252-94) was used as the medium. The disease model cells were seeded in a 6-well plate at a rate of 1.5×10^5 cells per well and cultured at 37° C. (5% CO2) for 48 hours. DMEM+10% FBS+1% P/S was used as the medium.
After 48 hours, the medium was removed, and AKP-001, SB203580 (Cayman, 13067), PH-797804 (Selleck Chemicals, S2726) and VX-702 (Selleck Chemicals, 56005) were added to DMEM+2% FBS+1% P/S so that the final concentration was 0.01, 0.03, 0.1, 0.3, 1, 3, 10 and 30 μM, followed by culturing as 24-hour pretreatment. After 24 hours, the medium was removed, and AKP-001, 5B203580 (Cayman, 13067), PH-797804 (Selleck Chemicals, S2726), or VX-702 (Selleck Chemicals, S6005), together with 100 ng/ml Recombinant Human TGF-β2 (R&D systems, RND302-B2-002), were added to DMEM+2% FBS+1% P/S so that the final concentration was 0.01 μM, 0.03 μM, 0.1 μM, 0.3 μM, 1 μM, 3 μM, 10 μM, and 30 μM, followed by culturing for 24 hours. After 24 hours, cell damage was evaluated by observation with a phase contrast microscope. As a control, immortalized corneal endothelial cells that were not stimulated with TGF-β were used.

[2] = system: cleaved caspase-3 and PARP; assay: Western blot of caspase 3 and PARP in iFECD stimulated with TGF-β2; type: cell-based, human; conditions: 0.1 μM; for cleaved caspase-3 and PARP expression: 100 ng/ml TGF-β2, 24 hours; for caspase activity: TGF-β2
Method: The medium was removed from the culture dish of cultured disease model cells, and the disease model cells were supplemented with 1×PBS (−) that was preheated to 37° C., followed by washing. This operation was repeated twice. The cells were supplemented with 1×PBS (−) again and incubated for 5 minutes at 37° C. (5% CO2). After the PBS (−) was removed, the cells were supplemented with 0.05% Trypsin-EDTA (nacalai tesque, 32778-34) and incubated for 5 minutes at 37° C. (5% CO2). The cells were then suspended in a medium, and collected by centrifugation at 1500 rpm for 3 minutes. Medium: DMEM (nacalai tesque, 08456-36)+10% FBS (Biowest, S1820-500)+1% P/S (nacalai tesque, 26252-94).
The Fuchs' endothelial corneal dystrophy patient-derived immortalized corneal endothelial cells were seeded in a 6-well plate at a rate of 1.5×10^5 cells per well and cultured at 37° C. (5% CO2) for 48 hours. DMEM+10% FBS+1% P/S was used as the medium. After 48 hours, the medium was removed, and SB203580 (Cayman, 13067), PH-797804 (Selleck Chemicals, S2726), VX-702 (Selleck Chemicals, 56005) and AKP-001 were added to DMEM+2% FBS+1% P/S so that all the final concentration was 0.1 μM, followed by culturing as 24-hour pretreatment.
After 24 hours, the medium was removed, and SB203580 (Cayman, 13067), PH-797804 (Selleck Chemicals, S2726), VX-702 (Selleck Chemicals, 56005) and AKP-001, together with 100 ng/ml recombinant human TGF-β2 (R & D systems, RND302-B2-002), were added to DMEM+2% FBS+1% P/S so that all the final concentration was 0.1 μM, followed by culturing for 24 hours. After 24 hours, the protein was subjected to Western blotting according to the following procedure to evaluate the effect on apoptosis.
The medium was collected on ice to collect free and dead cells as well. The solution obtained from washing the cells twice with 1×PBS (−) was also collected, followed by centrifugation of 800 g at 4° C. for 5 minutes. The supernatant was discarded to obtain precipitates. The washed cells were supplemented with a protein extraction buffer (RIPA; 50 mM Tris-HCl (pH 7.4), 150 mM NaCl, 1 mM EDTA, 0.1% SDS, 0.5% DOC, 1% NP-40) on ice to extract proteins. The precipitates from centrifuging the free and dead cells were also subsequently suspended together for extraction. The collected solution was pulverized three times for 30 seconds in cold water with a sonication device (BIORUPTOR, TOSHO DENKI) and centrifuged for 10 min at 4° C. at 15000 rpm to collect the supernatant of proteins.
Eight μg of the extracted protein was separated by SDS-PAGE and transferred onto a nitrocellulose membrane. A rabbit anti-Caspase 3 antibody (Cell Signaling, 9662), rabbit anti-PARP antibody (Cell Signaling, 9542), and mouse anti-GAPDH antibody (MBL, M171-3) were used as the primary antibodies. A peroxidase-labeled anti-rabbit antibody and anti-mouse antibody (GE Healthcare Biosciences, NA931V, NA934V) were used as the secondary antibodies. For the primary antibodies, the rabbit anti-PARP antibody was diluted 1000-fold, the rabbit anti-Caspase 3 antibody was diluted 1000-fold, and the mouse anti-GAPDH antibody was diluted 3000-fold. Further, the secondary antibody was diluted 5000-fold. Chemi Lumi ONE Ultra (Nacalai Tesque, 11644-40) was used for detection. The detected band strength was analyzed with a lumino image analyzer LAS-4000 mini (Fuji Film) and ImageQuant™ software (GE Healthcare).

corneal endothelium = assay: Histological analysis of the corneal endothelium after instillation; type: in vivo; conditions: 10 μM into the anterior chamber, after 24 hours, positive control
Text: Rabbits were euthanized, and then their eyes were removed and histologically analyzed. Expression of markers related to corneal endothelial functions was confirmed by immunostaining. The sclerocornea fragments were fixed with 0.5% paraformaldehyde and then blocked with 1% bovine serum albumin. As primary antibodies, ZO-1 antibody (Life Technologies) and N-cadherin antibody (BD Biosciences), which are indicators of the barrier function of corneal endothelial cells, and Na^+/K^+-ATPase antibody (MILLIPORE), which is an indicator of pump functions, were added, followed by standing at 4° C. overnight. […] Further, nuclear staining was performed using DAPI (Dojindo). To observe the cell morphology, actin was stained using Phalloidin (Life Technologies). The stained sclerocornea fragments were mounted in slide glasses and observed using a confocal fluorescence microscope (TCS SPE, Leica).
In addition, rabbits were euthanized, and then their eyes were removed. To assess cell death, the sclerocornea fragments were stained with Annexin V (Zymed Laboratories) and PI (Zymed Laboratories), fixed with 0.5% paraformaldehyde, and nuclear stained with DAPI (Dojindo). The stained sclerocornea fragments were mounted in slide glass and observed using a confocal fluorescence microscope (TCS SPE, Leica). Staurosporine (10 μM, Merck Millipore) was administered into the anterior chamber of a rabbit eyeball, and after 24 hours, it was used as a positive control.

| Compound | disorder in the corneal endothelial cells [1] | cell damage inhibitory effect for the corneal endothelial cells [1] | cleaved caspase-3 and PARP expression [2] | caspase activity [2] | Annexin V and PI staining (cell death) (corneal endothelium) |
| --- | --- | --- | --- | --- | --- |
| CNC(=O)c1ccc(C)c(-n2c(C)cc(OCc3ccc(F)cc3F)c(Br)c2=O)c1 [PH-797804] | effectively suppressed | not observed; also recorded: No inhibitory effects | confirmed similarly | not inhibited | – |
| NC(=O)c1ccc(N(C(N)=O)c2c(F)cccc2F)nc1-c1ccc(F)cc1F [VX-702] | effectively suppressed | not observed; also recorded: No inhibitory effects | confirmed similarly | not inhibited | – |
| CN[C@@H]1C[C@H]2O[C@@](C)([C@@H]1OC)n1c3ccccc3c3c4c(c5c6ccccc6n2c5c31)C(=O)NC4 [staurosporine, reference compound] | – | – | – | – | Staining with Annexin V or PI was observed |
